# According to the NIST ThermoML archive (doi:10.1016/j.fluid.2005.01.002):
# Values joined by “and” are separate entries in the source; they are usually repeats but may differ in a detail not shown here. Equal values may be shown once. ± gives the expanded uncertainty stated by the source.
# Test: not given
# Conditions: 353.15 K; Liquid
row,Compound,vapor or sublimation pressure
1,C1CCOC1 [tetrahydrofuran],155.92 ± 1 kPa and 157.86 ± 1 kPa
2,CC(C)O [propan-2-ol],92.26 ± 0.62 kPa and 91.99 ± 0.61 kPa
3,O [water],47.37 ± 0.58 kPa and 47.82 ± 0.58 kPa
4,CCO [ethanol],109.08 ± 0.72 kPa
5,CC(C)=O [acetone],215.16 ± 1.4 kPa and 215.04 ± 1.4 kPa and 216.82 ± 5.5 kPa
6,CO [methanol],182.61 ± 1.2 kPa

# Test: activity coefficient (dimensionless); of the first substance listed, at infinite dilution; xn = mol fraction of the nth substance listed
# Conditions: 353.15 K; 101.33 kPa; Liquid; Static method; x1 = 0
row,Compound,activity coefficient
1,O [water] + CCn1cc[n+](C)c1.O=S(=O)([N-]S(=O)(=O)C(F)(F)F)C(F)(F)F,2.32 ± 0.04
2,CC(C)O [propan-2-ol] + CCn1cc[n+](C)c1.O=S(=O)([N-]S(=O)(=O)C(F)(F)F)C(F)(F)F,1.42 ± 0.02
3,O [water] + CCCC[n+]1ccn(C)c1.O=S(=O)([N-]S(=O)(=O)C(F)(F)F)C(F)(F)F,2.27 ± 0.03
4,CO [methanol] + COP(=O)([O-])OC.Cn1cc[n+](C)c1,0.029 ± 0.01
5,O [water] + COP(=O)([O-])OC.Cn1cc[n+](C)c1,0.028 ± 0.01
6,CC(C)=O [acetone] + CCn1cc[n+](C)c1.O=S(=O)([N-]S(=O)(=O)C(F)(F)F)C(F)(F)F,0.438 ± 0.01
7,CCO [ethanol] + COP(=O)([O-])OC.Cn1cc[n+](C)c1,0.115 ± 0.01
8,CC(C)O [propan-2-ol] + CCCC[n+]1ccn(C)c1.O=S(=O)([N-]S(=O)(=O)C(F)(F)F)C(F)(F)F,1.1 ± 0.01
9,CC(C)=O [acetone] + COP(=O)([O-])OC.Cn1cc[n+](C)c1,0.98 ± 0.01
10,CC(C)=O [acetone] + CCCC[n+]1ccn(C)c1.O=S(=O)([N-]S(=O)(=O)C(F)(F)F)C(F)(F)F,0.406 ± 0.01
11,C1CCOC1 [tetrahydrofuran] + CCn1cc[n+](C)c1.O=S(=O)([N-]S(=O)(=O)C(F)(F)F)C(F)(F)F,0.8 ± 0.01
12,C1CCOC1 [tetrahydrofuran] + COP(=O)([O-])OC.Cn1cc[n+](C)c1,3.21 ± 0.05
